Source: US20260137819A1 (Radionetics Oncology, Inc., priority 2022, published 2026)
Starred links: 1 amine or outer side, 2 acyl side, 3 side chain; linkers in the order of their positions; H or OH if unused. Non-standard residues stand in square brackets, D forms with d. Residues, ends and D or L forms follow the SMILES beside them. *: point of attachment. X1 = COc1cc2c(cc1-c1cccc(N*)c1)-c1c(c(C(=O)N3CCOCC3(C)C)nn1-c1cc(Cl)cc(Cl)c1)CO2; DOTA = O=C(O)CN1CCN(CC(=O)O)CCN(CC(=O)*)CCN(CC(=O)O)CC1; Suc = O=C(CCC(=O)[*:2])[*:1]; Sar = CNCC(=O)O

biological target: T1, human follicle-stimulating hormone receptor (FSHR) (Homo sapiens, UniProt P23945); assay: Measurement of agonist cAMP production by activation of human FSHR; assay type: cell-based; settings: CHO-K1 human FSHR cells, 30 minutes at 37° C., HTRF cAMP kit; read-out: hFSHR Agonist cAMP EC50
T1 construct: host or cells: CHO-K1
T1 sequence (P23945 18-695): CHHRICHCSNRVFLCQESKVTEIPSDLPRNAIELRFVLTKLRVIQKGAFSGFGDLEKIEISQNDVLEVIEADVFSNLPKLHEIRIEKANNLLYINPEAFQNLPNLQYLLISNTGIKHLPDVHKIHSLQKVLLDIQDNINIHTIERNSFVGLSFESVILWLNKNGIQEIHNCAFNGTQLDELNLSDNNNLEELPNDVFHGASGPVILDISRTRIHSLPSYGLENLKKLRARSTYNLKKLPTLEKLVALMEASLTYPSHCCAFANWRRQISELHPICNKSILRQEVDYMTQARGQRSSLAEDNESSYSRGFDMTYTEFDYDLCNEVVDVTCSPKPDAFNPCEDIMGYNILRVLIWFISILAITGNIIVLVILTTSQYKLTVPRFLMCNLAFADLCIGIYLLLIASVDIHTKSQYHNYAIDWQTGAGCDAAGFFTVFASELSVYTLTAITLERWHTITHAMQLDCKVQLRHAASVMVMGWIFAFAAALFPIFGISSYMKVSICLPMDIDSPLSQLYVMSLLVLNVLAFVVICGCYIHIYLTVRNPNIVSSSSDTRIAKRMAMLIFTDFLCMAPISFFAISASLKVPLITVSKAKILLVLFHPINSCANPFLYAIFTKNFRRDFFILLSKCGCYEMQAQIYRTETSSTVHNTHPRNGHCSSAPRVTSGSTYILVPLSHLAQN
Experimental: Measurement of agonist cAMP production by activation of human FSHR
Two days prior to the assay, 5,000 CHO—K1 human FSHR cells (Eurofins #95-0119C2) stably expressing the functional human follicle-stimulating hormone receptor were plated in a 96-well tissue culture-treated plate in growth media supplemented with the appropriate selection agent. […] The cells were incubated for 30 minutes at 37° C. (the final concentrations of the compound ranged from 0-10,000 nM). After the 30-minute incubation at 37° C., lysis buffer (HRTF CAMP kit, Cisbio #62AM5PEB)w as added directly to the cells and incubated for 30-minutes at room temperature. The diluted lysate was transferred and CAMP detection and visualization antibodies (HRTF CAMP kit, Cisbio #62AM5PEB) were added and incubated for 1-24 hours at room temperature. The time-resolved fluorescent signal was read with a Tecan M1000Pro (Tecan) multiplate reader. The intracellular cAMP concentrations were calculated by regression to a standard curve and were plotted vs. the concentration of the agonists. The concentration of test compound or FSH required to generate a half maximal response EC50 were calculated using standard curve-fitting methods. All data manipulations were performed using GraphPad Prism v9.3.1 (GraphPad, San Diego, CA).

SMILES	EC50
COc1cc2c(cc1-c1cncc(NC(=O)CCOCCOCCOCCOCCNC(=O)[C@H](CS(=O)(=O)O)NC(=O)CN3CCN(CC(=O)O)CCN(CC(=O)O)CCN(CC(=O)O)CC3)c1)-c1c(c(C(=O)N3CCOCC3(C)C)nn1-c1cc(Cl)cc(Cl)c1)CO2 [Compound 80]	10 to 100 nM
COc1cc2c(cc1-c1cccc(NC(=O)CN3CCN(CC(=O)O)CCN(CC(=O)O)CCN(CC(=O)O)CC3)c1)-c1c(c(C(=O)N3CCOCC3(C)C)nn1-c1cc(Cl)cc(Cl)c1)CO2 [Compound 29, 2,2′,2″-(10-(2-((3-(1-(3,5-dichlorophenyl)-3-(3,3-dimethylmorpholine-4-carbonyl)-7-methoxy-1,4-dihydrochromeno|4,3-c|pyrazol-8-yl)phenyl)amino)-2-oxoethyl)-1,4,7,10-tetraazacyclododecane-1,4,7-triyl)triacetic acid]	> 100 nM
COc1cc2c(cc1-c1cccc(NC(=O)CCC(=O)N(C)CC(=O)N(C)CC(=O)N(C)CC(=O)N[C@H](CCCCNC(=O)CN3CCN(CC(=O)O)CCN(CC(=O)O)CCN(CC(=O)O)CC3)C(=O)N[C@H](CCC(=O)O)C(=O)N[C@H](Cc3ccc(O)cc3)C(=O)N[C@H](CCCCN)C(=O)N[C@H](CCC(=O)O)C(=O)N[C@H](CCC(=O)O)C(=O)N[C@H](CCC(=O)O)C(=O)N[C@H](CCC(=O)O)C(=O)N[C@H](CCCCN)C(N)=O)c1)-c1c(c(C(=O)N3CCOCC3(C)C)nn1-c1cc(Cl)cc(Cl)c1)CO2 [Compound 98] ({X1-Suc}-[Sar][Sar][Sar][dK](DOTA)[dE][dY][dK][dE][dE][dE][dE][dK]-NH2)	10 to 100 nM
COc1cc2c(cc1-c1cccc(NC(=O)CCNC(=O)[C@H](CS(=O)(=O)O)NC(=O)CN3CCN(CC(=O)O)CCN(CC(=O)O)CCN(CC(=O)O)CC3)c1)-c1c(c(C(=O)N3CCOCC3(C)C)nn1-c1cc(Cl)cc(Cl)c1)CO2 [Compound 37, (R)-2,2′,2″-(10-(2-((1-((3-((3-(1-(3,5-dichlorophenyl)-3-(3,3dimethylmorpholine-4-carbonyl)-7-methoxy-1,4-dihydrochromeno|4,3-clpyrazol-8-yl)phenyl)amino)-3-oxopropyl)amino)-1-oxo-3-sulfopropan-2-yl)amino)-2-oxoethyl)-1,4,7,10-tetraazacyclododecane-1,4,7-triyl)triacetic acid]	10 to 100 nM

Second part, the compound after the results:

EC50	SMILES
10 to 100 nM	COc1cc2c(cc1-c1cccc(NC(=O)CNC(=O)C[C@@H](NC(=O)CN3CCN(CC(=O)O)CCN(CC(=O)O)CCN(CC(=O)O)CC3)C(=O)O)c1)-c1c(c(C(=O)N3CCOCC3(C)C)nn1-c1cc(Cl)cc(Cl)c1)CO2 [Compound 32, (R)-2,2′,2″-(10-(2-((1-carboxy-3-((2-((3-(1-(3,5-dichlorophenyl)-3-(3,3-dimethylmorpholine-4-carbonyl)-7-methoxy-1,4-dihydrochromeno|4,3-clpyrazol-8-yl)phenyl)amino)-2-oxoethyl)amino)-3-oxopropyl)amino)-2-oxoethyl)-1,4,7,10-tetraazacyclododecane-1,4,7-triyl)triacetic acid]
10 to 100 nM	COc1cc2c(cc1-c1cncc(NC(=O)CCNC(=O)[C@@H](CC(=O)O)NC(=O)[C@@H](CC(=O)O)NC(=O)[C@H](N)CCCNC(=O)CN3CCN(CC(=O)O)CCN(CC(=O)O)CCN(CC(=O)O)CC3)c1)-c1c(c(C(=O)N3CCOCC3(C)C)nn1-c1cc(Cl)cc(Cl)c1)CO2 [Compound 99, 2,2′,2″-(10-((7R,10R,13R)-7-amino-10,13-bis(carboxymethyl)-18-((5-(1-(3,5dichlorophenyl)-3-(3,3-dimethylmorpholine-4-carbonyl)-7-methoxy-1,4-dihydrochromeno|4,3-c|pyrazol-8-yl)pyridin-3-yl)amino)-2,8,11,14,18-pentaoxo-3,9,12,15-tetraazaoctadecyl)-1,4,7,10-tetraazacyclododecane-1,4,7-triyl)triacetic acid]
< 10 nM	COc1cc2c(cc1-c1cccc(NC(=O)CCOCCOCCOCCOCCOCCOCCNC(=O)CN3CCN(CC(=O)O)CCN(CC(=O)O)CCN(CC(=O)O)CC3)c1)-c1c(c(C(=O)N(C)C(C)(C)C)nn1-c1cc(Cl)cc(Cl)c1)CO2 [Compound 3A, indium (III) 2,2′,2″-(10-(24-((3-(3-(tert-butyl(methyl)carbamoyl)-1-(3,5-dichlorophenyl)-7-methoxy-1,4-dihydrochromeno[4,3-c]pyrazol-8-yl)phenyl)amino)-2,24-dioxo-6,9,12,15,18,21-hexaoxa-3-azatetracosyl)-1,4,7,10-tetraazacyclododecane-1,4,7-triyl)triacetate]
< 10 nM	COc1cc2c(cc1-c1ccc(NC(=O)NCCOCCOCCOCCOCCOCCOCCNC(=O)CN3CCN(CC(=O)O)CCN(CC(=O)O)CCN(CC(=O)O)CC3)cc1)-c1c(c(C(=O)N(C)C(C)(C)C)nn1-c1cc(Cl)cc(Cl)c1)CO2 [Compound 5A, indium (III) 2,2′,2″-(10-(1-((4-(3-(tert-butyl(methyl)carbamoyl)-1-(3,5-dichlorophenyl)-7-methoxy-1,4-dihydrochromeno[4,3-c]pyrazol-8-yl)phenyl)amino)-1,24-dioxo-5,8,11,14,17,20-hexaoxa-2,23-diazapentacosan-25-yl)-1,4,7,10-tetraazacyclododecane-1,4,7-triyl)triacetate]
< 10 nM	COc1cc2c(cc1-c1cccc(NC(=O)CCOCCOCCNC(=O)C3OC(CNC(=O)CN4CCN(CC(=O)O)CCN(CC(=O)O)CCN(CC(=O)O)CC4)C(O)C(O)C3O)c1)-c1c(c(C(=O)N3CCOCC3(C)C)nn1-c1cc(Cl)cc(Cl)c1)CO2 [Compound 21, 2,2′,2″-(10-(2-((((2S,3R,4R,5R,6S)-6-((2-(2-(3-((3-(1-(3,5-dichlorophenyl)-3-(3,3-dimethylmorpholine-4-carbonyl)-7-methoxy-1,4-dihydrochromeno|4,3-clpyrazol-8-yl)phenyl)amino)-3-oxopropoxy)ethoxy)ethyl)carbamoyl)-3,4,5-trihydroxytetrahydro-2H-pyran-2-yl)methyl)amino)-2-oxoethyl)-1,4,7,10-tetraazacyclododecane-1,4,7-triyl)triacetic acid]
< 10 nM	COc1cc2c(cc1-c1cccc(NC(=O)CCNC(=O)CN3CCC(NC(=O)CN4CCN(CC(=O)O)CCN(CC(=O)O)CCN(CC(=O)O)CC4)CC3)c1)-c1c(c(C(=O)N3CCOCC3(C)C)nn1-c1cc(Cl)cc(Cl)c1)CO2 [Compound 36, 2,2′,2″-(10-(2-((1-(2-((3-((3-(1-(3,5-dichlorophenyl)-3-(3,3dimethylmorpholine-4-carbonyl)-7-methoxy-1,4-dihydrochromeno|4,3-clpyrazol-8-yl)phenyl)amino)-3-oxopropyl)amino)-2-oxoethyl)piperidin-4-yl)amino)-2-oxoethyl)-1,4,7,10-tetraazacyclododecane-1,4,7-triyl)triacetic acid]

same assay, conditions: hFSHR Agonist cAMP EC50, CHO-K1 human FSHR cells, 30 minutes at 37° C., HTRF cAMP kit

SMILES	EC50
COc1cc2c(cc1-c1cccc(NC(=O)CCC(=O)NCCCC[C@@H](NC(=O)[C@@H](C)NC(=O)[C@@H](CCC(=O)O)NC(=O)[C@@H](C)NC(=O)[C@@H](CCC(=O)O)NC(=O)[C@@H](C)NC(=O)CN3CCN(CC(=O)O)CCN(CC(=O)O)CCN(CC(=O)O)CC3)C(=O)N[C@H](C)C(N)=O)c1)-c1c(c(C(=O)N3CCOCC3(C)C)nn1-c1cc(Cl)cc(Cl)c1)CO2 [Compound 95]	10 to 100 nM
COc1cc2c(cc1-c1cncc(NC(=O)CCNC(=O)[C@@H](CCCCNC(=O)CN3CCN(CC(=O)O)CCN(CC(=O)O)CCN(CC(=O)O)CC3)NC(=O)CN3CCN(CCS(=O)(=O)O)CC3)c1)-c1c(c(C(=O)N3CCOCC3(C)C)nn1-c1cc(F)cc(F)c1)CO2 [Compound 50, (R)-2,2′,2″-(10-(2-((6-((3-((5-(1-(3,5-difluorophenyl)-3-(3,3-dimethylmorpholine-4-carbonyl)-7-methoxy-1,4-dihydrochromeno[4,3-c]pyrazol-8-yl)pyridin-3-yl)amino)-3-oxopropyl)amino)-6-oxo-5-(2-(4-(2-sulfoethyl)piperazin-1-yl)acetamido)hexyl)amino)-2-oxoethyl)-1,4,7,10-tetraazacyclododecane-1,4,7-triyl)triacetic acid--formic acid (1/1)]	> 100 nM
